Square brackets hold non-standard residues; d marks the D form. Peptide text beside a SMILES is read from it. NMeA = CN[C@@H](C)C(=O)O
How the values were obtained:
Format in all cases: functional
Staphylococcus aureus [1] = assay: Antimicrobial activity against methicillin-resistant Staphylococcus aureus ATCC 33591 assessed as inhibition of microbial growth incubated for 24 hrs by broth microdilution method
Bacillus subtilis = assay: Antimicrobial activity against Bacillus subtilis ATCC 6633 assessed as inhibition of microbial growth incubated for 24 hrs by broth microdilution method
Pseudomonas aeruginosa = assay: Antimicrobial activity against Pseudomonas aeruginosa ATCC 27853 assessed as inhibition of microbial growth incubated for 24 hrs by broth microdilution method
Candida albicans = assay: Antimicrobial activity against Candida albicans ATCC 10213 assessed as inhibition of microbial growth incubated for 24 hrs by broth microdilution method
Staphylococcus aureus [2] = assay: Antimicrobial activity against Staphylococcus aureus ATCC 29213 assessed as inhibition of microbial growth incubated for 24 hrs by broth microdilution method
Edwardsiella ictaluri = assay: Antimicrobial activity against Edwardsiella ictaluri ATCC33202 assessed as inhibition of microbial growth incubated for 24 hrs by broth microdilution method
Escherichia coli = assay: Antimicrobial activity against Escherichia coli ATCC 25922 assessed as inhibition of microbial growth incubated for 24 hrs by broth microdilution method
Edwardsiella tarda [3] = assay: Antimicrobial activity against Edwardsiella tarda ATCC15947 assessed as inhibition of microbial growth incubated for 24 hrs by broth microdilution method
Acinetobacter baumannii = assay: Antimicrobial activity against Acinetobacter baumannii 2799 assessed as inhibition of microbial growth incubated for 24 hrs by broth microdilution method
Staphylococcus aureus [4] = assay: Antimicrobial activity against methicillin-resistant Staphylococcus aureus ATCC R6101 assessed as inhibition of microbial growth incubated for 24 hrs by broth microdilution method
Edwardsiella tarda [5] = assay: Antimicrobial activity against Edwardsiella tarda QDIO-2 assessed as inhibition of microbial growth incubated for 24 hrs by broth microdilution method
RAW264.7 [6] = assay: Anti-inflammatory activity in LPS-induced mouse RAW264.7 cells assessed as inhibition of TNF-alpha production at 10 uM preincubated with compound for 24 hrs followed by compound replacement with DMEM media and measured 6 hrs after LPS stimulation by qRT-PCR analysis relative to control
RAW264.7 [7] = assay: Anti-inflammatory activity in LPS-induced mouse RAW264.7 cells assessed as inhibition of MCP-1 production at 10 uM preincubated with compound for 24 hrs followed by compound replacement with DMEM media and measured 6 hrs after LPS stimulation by qRT-PCR analysis relative to control
RAW264.7 [8] = assay: Anti-inflammatory activity in LPS-induced mouse RAW264.7 cells assessed as inhibition of IL-6 production at 10 uM preincubated with compound for 24 hrs followed by compound replacement with DMEM media and measured 6 hrs after LPS stimulation by qRT-PCR analysis relative to control

CC(C)Cc1cnc(CC(C)C)c(=O)[nH]1
MIC (Staphylococcus aureus [1]): > 128 µg/mL | MIC (Bacillus subtilis): > 128 µg/mL | MIC (Pseudomonas aeruginosa): > 128 µg/mL | MIC (Candida albicans): > 128 µg/mL | MIC (Staphylococcus aureus [2]): > 128 µg/mL | MIC (Edwardsiella ictaluri): 64 µg/mL | MIC (Escherichia coli): > 128 µg/mL | MIC (Edwardsiella tarda [3]): 128 µg/mL | MIC (Acinetobacter baumannii): > 128 µg/mL | MIC (Staphylococcus aureus [4]): > 128 µg/mL | MIC (Edwardsiella tarda [5]): 128 µg/mL

CC(C)Cc1ncc([C@@H](O)C(C)C)n(O)c1=O
MIC (Staphylococcus aureus [1]): 16 µg/mL | MIC (Bacillus subtilis): 128 µg/mL | MIC (Pseudomonas aeruginosa): > 128 µg/mL | MIC (Candida albicans): 32 µg/mL | MIC (Staphylococcus aureus [2]): 32 µg/mL | MIC (Edwardsiella ictaluri): 64 µg/mL | MIC (Escherichia coli): > 128 µg/mL | MIC (Edwardsiella tarda [3]): 128 µg/mL | MIC (Acinetobacter baumannii): 128 µg/mL | MIC (Staphylococcus aureus [4]): > 128 µg/mL | MIC (Edwardsiella tarda [5]): 128 µg/mL

CC[C@H](C)[C@@H]1NC(=O)[C@H](C)NC(=O)[C@H](Cc2ccc(OC)cc2)NC(=O)[C@H](C)N(C)C1=O (cyclo(AI[NMeA]Y(Me)))
inhibition at 10 µM (RAW264.7 [6]): 6.6% | inhibition at 10 µM (RAW264.7 [7]): 12% | inhibition at 10 µM (RAW264.7 [8]): 67%

CC[C@H](C)[C@@H]1NC(=O)[C@H]([C@@H](C)O)NC(=O)[C@H](Cc2ccccc2)NC(=O)[C@H](C)N(C)C1=O (cyclo(FTI[NMeA]))
inhibition at 10 µM (RAW264.7 [6]): 13% | MIC (Staphylococcus aureus [1]): > 128 µg/mL | MIC (Bacillus subtilis): > 128 µg/mL | inhibition at 10 µM (RAW264.7 [7]): 56% | MIC (Pseudomonas aeruginosa): > 128 µg/mL | MIC (Candida albicans): > 128 µg/mL | inhibition at 10 µM (RAW264.7 [8]): 61% | MIC (Staphylococcus aureus [2]): > 128 µg/mL | MIC (Edwardsiella ictaluri): 128 µg/mL | MIC (Escherichia coli): > 128 µg/mL | MIC (Edwardsiella tarda [3]): > 128 µg/mL | MIC (Acinetobacter baumannii): > 128 µg/mL | MIC (Staphylococcus aureus [4]): > 128 µg/mL | MIC (Edwardsiella tarda [5]): 128 µg/mL

CC[C@H](C)[C@@H]1NC(=O)[C@H]([C@@H](C)O)NC(=O)[C@H](Cc2ccc(OC)cc2)NC(=O)[C@@H]2CCCN2C1=O (cyclo(IPY(Me)T))
inhibition at 10 µM (RAW264.7 [6]): 16% | MIC (Staphylococcus aureus [1]): > 128 µg/mL | MIC (Bacillus subtilis): > 128 µg/mL | inhibition at 10 µM (RAW264.7 [7]): 42% | MIC (Pseudomonas aeruginosa): > 128 µg/mL | MIC (Candida albicans): > 128 µg/mL | inhibition at 10 µM (RAW264.7 [8]): 63% | MIC (Staphylococcus aureus [2]): > 128 µg/mL | MIC (Edwardsiella ictaluri): > 128 µg/mL | MIC (Escherichia coli): > 128 µg/mL | MIC (Edwardsiella tarda [3]): > 128 µg/mL | MIC (Acinetobacter baumannii): > 128 µg/mL | MIC (Staphylococcus aureus [4]): > 128 µg/mL | MIC (Edwardsiella tarda [5]): > 128 µg/mL

CC[C@H](C)[C@@H]1NC(=O)[C@H]([C@@H](C)O)NC(=O)[C@H](Cc2ccc(OC)cc2)NC(=O)[C@H](C)N(C)C1=O (cyclo(I[NMeA]Y(Me)T))
inhibition at 10 µM (RAW264.7 [6]): 24% | MIC (Staphylococcus aureus [1]): > 128 µg/mL | MIC (Bacillus subtilis): > 128 µg/mL | inhibition at 10 µM (RAW264.7 [7]): 44% | MIC (Pseudomonas aeruginosa): > 128 µg/mL | MIC (Candida albicans): > 128 µg/mL | inhibition at 10 µM (RAW264.7 [8]): 55% | MIC (Staphylococcus aureus [2]): > 128 µg/mL | MIC (Edwardsiella ictaluri): 64 µg/mL | MIC (Escherichia coli): > 128 µg/mL | MIC (Edwardsiella tarda [3]): 128 µg/mL | MIC (Acinetobacter baumannii): > 128 µg/mL | MIC (Staphylococcus aureus [4]): > 128 µg/mL | MIC (Edwardsiella tarda [5]): > 128 µg/mL

COc1ccc(C[C@@H]2NC(=O)[C@H](C)N(C)C(=O)[C@H](CC(C)C)NC(=O)[C@H]([C@@H](C)O)NC2=O)cc1 (cyclo(L[NMeA]Y(Me)T))
inhibition at 10 µM (RAW264.7 [6]): 15% | MIC (Staphylococcus aureus [1]): > 128 µg/mL | MIC (Bacillus subtilis): > 128 µg/mL | inhibition at 10 µM (RAW264.7 [7]): 41% | MIC (Pseudomonas aeruginosa): > 128 µg/mL | MIC (Candida albicans): > 128 µg/mL | inhibition at 10 µM (RAW264.7 [8]): 55% | MIC (Staphylococcus aureus [2]): > 128 µg/mL | MIC (Edwardsiella ictaluri): > 128 µg/mL | MIC (Escherichia coli): > 128 µg/mL | MIC (Edwardsiella tarda [3]): 128 µg/mL | MIC (Acinetobacter baumannii): > 128 µg/mL | MIC (Staphylococcus aureus [4]): > 128 µg/mL | MIC (Edwardsiella tarda [5]): > 128 µg/mL

CO[C@H]1/C=C/O[C@@]2(C)Oc3c(C)c(O)c4c(O)c(c(/C=N/N5CCN(C)CC5)c(O)c4c3C2=O)NC(=O)/C(C)=C\C=C\[C@H](C)[C@H](O)[C@@H](C)[C@@H](O)[C@@H](C)[C@H](OC(C)=O)[C@@H]1C [RIFAMPIN]
MIC (Staphylococcus aureus [1]): < 0.25 µg/mL | MIC (Bacillus subtilis): < 0.25 µg/mL | MIC (Pseudomonas aeruginosa): 8 µg/mL | MIC (Candida albicans): < 0.25 µg/mL | MIC (Staphylococcus aureus [2]): < 0.25 µg/mL | MIC (Edwardsiella ictaluri): 8 µg/mL | MIC (Escherichia coli): 4 µg/mL | MIC (Edwardsiella tarda [3]): 2 µg/mL | MIC (Acinetobacter baumannii): 1 µg/mL | MIC (Staphylococcus aureus [4]): 8 µg/mL | MIC (Edwardsiella tarda [5]): 4 µg/mL

CN[C@H](CC(C)C)C(=O)N[C@H]1C(=O)N[C@@H](CC(N)=O)C(=O)N[C@H]2C(=O)N[C@H]3C(=O)N[C@H](C(=O)N[C@H](C(=O)O)c4cc(O)cc(O)c4-c4cc3ccc4O)[C@H](O)c3ccc(c(Cl)c3)Oc3cc2cc(c3O[C@@H]2O[C@H](CO)[C@@H](O)[C@H](O)[C@H]2O[C@H]2C[C@](C)(N)[C@H](O)[C@H](C)O2)Oc2ccc(cc2Cl)[C@H]1O [VANCOMYCIN]
MIC (Bacillus subtilis): < 0.25 µg/mL | MIC (Pseudomonas aeruginosa): > 128 µg/mL | MIC (Candida albicans): < 0.25 µg/mL | MIC (Edwardsiella ictaluri): > 128 µg/mL | MIC (Escherichia coli): 128 µg/mL | MIC (Edwardsiella tarda [3]): > 128 µg/mL | MIC (Acinetobacter baumannii): 64 µg/mL | MIC (Staphylococcus aureus [4]): > 128 µg/mL | MIC (Edwardsiella tarda [5]): > 128 µg/mL
